pIC50: −log10 of the molar value.

Data set [1] concerns the target T1, COX-2 (UniProt P35354).
T1 sequence (P35354 1-604): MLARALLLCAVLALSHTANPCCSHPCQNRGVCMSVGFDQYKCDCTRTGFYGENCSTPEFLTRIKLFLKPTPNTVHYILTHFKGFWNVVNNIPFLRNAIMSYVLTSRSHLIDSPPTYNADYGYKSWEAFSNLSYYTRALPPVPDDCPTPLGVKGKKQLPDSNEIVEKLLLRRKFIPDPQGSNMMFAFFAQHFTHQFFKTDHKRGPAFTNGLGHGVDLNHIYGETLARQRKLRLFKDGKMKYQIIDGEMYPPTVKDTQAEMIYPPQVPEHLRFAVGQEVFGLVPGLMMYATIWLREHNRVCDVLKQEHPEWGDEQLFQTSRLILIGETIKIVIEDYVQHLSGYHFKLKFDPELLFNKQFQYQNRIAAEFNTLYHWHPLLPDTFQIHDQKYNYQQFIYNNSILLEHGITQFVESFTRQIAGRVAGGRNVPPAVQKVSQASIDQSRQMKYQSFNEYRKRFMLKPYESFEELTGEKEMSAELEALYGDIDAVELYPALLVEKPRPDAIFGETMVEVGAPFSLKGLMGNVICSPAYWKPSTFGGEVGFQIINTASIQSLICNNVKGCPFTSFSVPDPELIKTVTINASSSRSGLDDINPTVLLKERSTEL
The data set can be described thus: Fast assay for COX-2 activity (PGE2 ELISA). The settings on record: fast assay: 10 min pre-incubation at 25° C., reaction stopped after two minutes, pH 7.5. Type of data set: biochemical, human or murine. A general note: ELISA stands for enzyme-linked immunosorbent assay.

The target in data set [2] is COX-1 (UniProt P23219). Kind of data set: Assay for COX-1 activity (PGE2 ELISA). The settings on record: read-out: COX-1 IC50; 10–20 minutes pre-incubation, reaction stopped after ten minutes, pH 8.0.
Description: (§1) Recombinant baculoviruses were isolated by transfecting 4 μg of baculovirus transfer vector DNA into SF9 insect cells (2×10^8) along with 200 ng of linearized baculovirus plasmid DNA by the calcium phosphate method. […] Recombinant viruses were purified by three rounds of plaque purification and high titer (10^7–10^8 pfu/mL) stocks of virus were prepared. For large scale production, SF9 insect cells were infected in 10 liter fermentors (0.5×10^6/mL) with the recombinant baculovirus stock such that the multiplicity of infection was 0.1. […] The homogenate was centrifuged at 10,000×G for 30 minutes, and the resultant supernatant was stored at −80° C. before being assayed for COX activity.
Assay for COX-1 and COX-2 Activity
(§2) COX activity was assayed as PGE2 formed/μg protein/time using an ELISA to detect the prostaglandin released. CHAPS-solubilized insect cell membranes containing the appropriate COX enzyme were incubated in a potassium phosphate buffer (50 mM, pH 8.0) containing epinephrine, phenol, and heme with the addition of arachidonic acid (10 μM). […] The PGE2 formed was measured by standard ELISA technology (Cayman Chemical).
Data set [3] concerns the target T1, COX-2. Kind of data set: Assay for COX-2 activity (PGE2 ELISA). The settings on record: read-out: COX-2 IC50; 10–20 minutes pre-incubation, reaction stopped after ten minutes, pH 8.0.
Description: as §1
Assay for COX-1 and COX-2 Activity
as §2

As usually defined, the pIC50 is the IC50 on a negative log10 scale, so that one unit is a factor of ten. A word on the melting point: it is the temperature of the solid-liquid transition. `Cc1cc2c(cc1Cl)C=C(C(=O)O)C(C(F)(F)F)O2` (centres unmarked) [Example 6, 6-Chloro-7-methyl-2-trifluoromethyl-2H-1-benzopyran-3-carboxylic acid] displayed a melting point of 207.5 to 209.3 °C. For the same compound, the pIC50 in data set [1] is > 7.00.

As to `O=C(O)C1=Cc2cc(Br)ccc2OC1C(F)(F)F` (centres unmarked) [Example 13, 6-Bromo-2-trifluoromethyl-2H-1-benzopyran-3-carboxylic acid], the melting point is 189.6 to 190.9 °C. In data set [1], this compound had a pIC50 of 6.52.

On to `O=C(O)C1=Cc2cccc(Cl)c2OC1C(F)(F)F` (centres unmarked) [Example 14, 8-Chloro-2-trifluoromethyl-2H-1-benzopyran-3-carboxylic acid], for which the melting point is 224.5 to 225.6 °C. Moreover, the pIC50 in data set [1] is < 4.00.

In turn, `O=C(O)C1=Cc2c(Cl)cc(Cl)cc2OC1C(F)(F)F` (centres unmarked) [Example 18, 5,7-Dichloro-2-trifluoromethyl-2H-1-benzopyran-3-carboxylic acid] had a melting point of 190.1 to 191.2 °C. The compound further gave a pIC50 in data set [1] of 4.92. For `O=C(O)C1=Cc2cccc(-c3ccccc3)c2OC1C(F)(F)F` (centres unmarked) [Example 21, 8-Phenyl-2-trifluoromethyl-2H-1-benzopyran-3-carboxylic acid], in that order: 171.6 to 175 °C and 4.96. On the same counts, the results for `Cc1ccc2c(c1C)OC(C(F)(F)F)C(C(=O)O)=C2` (centres unmarked) [Example 22, 7,8-Dimethyl-2-trifluoromethyl-2H-1-benzopyran-3-carboxylic acid] are 245.2 to 247.3 °C and < 4.00. For `CC(C)c1ccc2c(c1)OC(C(F)(F)F)C(C(=O)O)=C2` (centres unmarked) [Example 25, 7-(1-Methylethyl)-2-trifluoromethyl-2H-1-benzopyran-3-carboxylic acid], in that order: 158.3 to 159.7 °C and < 4.00. The compound `O=C(O)C1=Cc2ccc(-c3ccccc3)cc2OC1C(F)(F)F` (centres unmarked) [Example 26, 7-Phenyl-2-trifluoromethyl-2H-1-benzopyran-3-carboxylic acid] gave a melting point of 209.4 to 211.7 °C. The pIC50 in data set [1] is < 4.00. In turn, `CCc1cc2c(cc1Cl)C=C(C(=O)O)C(C(F)(F)F)O2` (centres unmarked) [Example 27, 6-Chloro-7-ethyl-2-trifluoromethyl-2H-1-benzopyran-3-carboxylic acid] returned a melting point of 170.7 to 172.1 °C. In data set [1], the pIC50 is 4.17. In turn, `CCc1cc(Cl)cc2c1OC(C(F)(F)F)C(C(=O)O)=C2` (centres unmarked) [Example 29, 6-Chloro-8-ethyl-2-trifluoromethyl-2H-1-benzopyran-3-carboxylic acid] yielded a melting point of 197.2 to 199.1 °C. For the same compound, the pIC50 in data set [1] is > 7.00. The compound `COc1cc(Cl)c2c(c1)C=C(C(=O)O)C(C(F)(F)F)O2` (centres unmarked) [Example 40, 8-Chloro-6-methoxy-2-trifluoromethyl-2H-1-benzopyran-3-carboxylic acid] returned a melting point of 204.5 to 206.9 °C. Further, in data set [2], the pIC50 is 4.37. For `O=C(O)C1=Cc2cc(F)cc(Br)c2OC1C(F)(F)F` (centres unmarked) [Example 43, 8-Bromo-6-fluoro-2-trifluoromethyl-2H-1-benzopyran-3-carboxylic acid], the melting point was > 300 °C. In data set [1], this compound had a negative-log IC50 (pIC50) of 4.00. `CN(C)S(=O)(=O)c1ccc2c(c1)C=C(C(=O)O)C(C(F)(F)F)O2` (centres unmarked) [Example 50, 6-[(Dimethylamino)sulfonyl]-2-trifluoromethyl-2H-1-benzopyran-3-carboxylic acid]: the melting point is 201.2 to 202.5 °C. The compound also gave a pIC50 in data set [1] of 4.10. On the same counts, the results for `CNS(=O)(=O)c1ccc2c(c1)C=C(C(=O)O)C(C(F)(F)F)O2` (centres unmarked) [Example 52, 6-(Methylamino)sulfonyl-2-trifluoromethyl-2H-1-benzopyran-3-carboxylic acid] are 207.6 to 208.6 °C and 4.70. As for `CC(C)(C)NS(=O)(=O)c1ccc2c(c1)C=C(C(=O)O)C(C(F)(F)F)O2` (centres unmarked) [Example 54, 6-[(1,1-Dimethylethyl)aminosulfonyl]-2-trifluoromethyl-2H-1-benzopyran-3-carboxylic acid], the melting point is 229.3 to 233.5 °C. The compound also had a pIC50 in data set [1] of 4.72. In the case of `O=C(O)C1=Cc2cc(C(=O)Cc3ccccc3)ccc2OC1C(F)(F)F` (centres unmarked) [Example 59, 6-Phenylacetyl-2-trifluoromethyl-2H-1-benzopyran-3-carboxylic acid], the melting point fell in the range of 159 to 164 °C. This compound had a pIC50 in data set [1] of 4.37. For `O=C(O)C1=Cc2c(ccc3ccccc23)OC1C(F)(F)F` (centres unmarked) [Example 63], in that order: 244.7 to 249.8 °C and 5.85. Turning to `O=C(O)C1=Cc2cc(OC(F)(F)F)ccc2O[C@@H]1C(F)(F)F` [Example 67, (S)-6-Trifluoromethoxy-2-trifluoromethyl-2H-1-benzopyran-3-carboxylic acid], the pIC50 in data set [2] was 5.17.

Regarding `O=C(O)C1=Cc2cc(C(F)(F)F)ccc2OC1C(F)(F)F` (centres unmarked) [Example 82, 2,6-Bis(trifluoromethyl)-2H-1-benzopyran-3-carboxylic acid], the pIC50 in data set [2] is 5.25. `O=C(O)C1=Cc2cc(C(=O)c3ccccc3)ccc2OC1C(F)(F)F` (centres unmarked) [Example 96, 6-Benzoyl-2-(trifluoromethyl)-2H-1-benzopyran-3-carboxylic acid] registered a melting point of 269.8 to 270.8 °C. Further, the pIC50 in data set [1] was 6.70. In addition, the pIC50 in data set [3] is 6.52.

For the compound `CC(C)c1cc(Cl)cc2c1OC(C(F)(F)F)C(C(=O)O)=C2` (centres unmarked) [Example 103, 6-Chloro-8-(1-methylethyl)-2-trifluoramethyl-2H-1-benzopyran-3-carboxylic acid], in data set [1], the pIC50 was 4.44. The compound `N#Cc1ccc(CN2c3ccc(Cl)cc3C=C(C(=O)O)C2C(F)(F)F)cc1` (centres unmarked) [Example 169, 6-Chloro-1-[(4-cyanophenyl)methyl]-1,2-dihydro-2-(trifluoromethyl)-3-quinolinecarboxylic acid] came in with a melting point of 258 to 260 °C. The same measure, in the same setting: in the case of `O=C(O)C1=Cc2cc(Cl)ccc2N(Cc2ccc([N+](=O)[O-])cc2)C1C(F)(F)F` (centres unmarked) [Example 170, 6-Chloro-1,2-dihydro-1-[(4-nitrophenyl)methyl]-2-(trifluoromethyl)-3-quinolinecarboxylic acid] it was 225 to 228 °C; in that of `CCN1c2ccc(Cl)cc2C=C(C(=O)O)C1C(F)(F)F` (centres unmarked) [Example 171, 6-Chloro-1,2-dihydro-1-ethyl-2-(trifluoromethyl)-3-quinolinecarboxylic acid], 201 to 202 °C; in that of `O=C(O)C1=Cc2cc(C(O)C(F)(F)F)ccc2OC1C(F)(F)F` (centres unmarked) [Example 173, 6-(2,2,2-Trifluoro-1-hydroxyethyl)-2-(trifluoromethyl)-2H-1-benzopyran-3-carboxylic acid], 114 to 120 °C. Same read-out and setting: in the case of `O=C(O)C1=Cc2cc(Cl)cnc2NC1C(F)(F)F` (centres unmarked) [Example 174, 6-Chloro-2-(triflouromethyl)-1,2-dihydro[1,8]napthyridine-3-carboxylic acid] it was 287.4 to 288.4 °C; in that of `O=C(O)C1=Cc2cc(Cl)c(S(=O)(=O)c3ccc(Cl)cc3)cc2OC1C(F)(F)F` (centres unmarked) [Example 194, 6-Chloro-7-[(4-chlorophenyl)sulfonyl]-2-(trifluoromethyl)-2H-1-benzopyran-3-carboxylic acid], 240.4 to 241.5 °C. On to `O=C(O)C1=Cc2cc(Cl)c(Oc3cccc(Cl)n3)cc2OC1C(F)(F)F` (centres unmarked) [Example 199, 6-Chloro-7-[(6-chloro-2-pyridinyl)oxy]-2-(trifluoromethyl)-2H-1-benzopyran-3-carboxylic acid], for which the melting point lay in the range of 226.4 to 227.4 °C. Also, the pIC50 in data set [1] is > 7.00.

`O=C(O)C1=Cc2cc(Cl)c(Oc3ccc([N+](=O)[O-])cc3)cc2OC1C(F)(F)F` (centres unmarked) [Example 203, 6-Chloro-7-(4-nitrophenoxy)-2-(trifluoromethyl)-2H-1-benzopyran-3-carboxylic acid] had a melting point of 246.4 to 248.3 °C. The pIC50 in data set [1] is > 7.00.

For `O=C(O)C1=Cc2cc(Cl)c(Oc3ccccc3Cl)cc2OC1C(F)(F)F` (centres unmarked) [Example 204, 6-Chloro-7-(2-chlorophenoxy)-2-(trifluoromethyl)-2H-1-benzopyran-3-carboxylic acid], the melting point lay in the range of 199 to 199.1 °C. Still for that read-out and setting: in the case of `O=C(O)C1=Cc2cc(Cl)c(Oc3ccc(Cl)c(F)c3)cc2OC1C(F)(F)F` (centres unmarked) [Example 205, 6-Chloro-7-(4-chloro-3-fluorophenoxy)-2-(trifluoromethyl)-2H-1-benzapyran-3-carboxylic acid] it was 206.8 to 207.4 °C. The compound `CCC1=C(C(=O)O)C(C(F)(F)F)Oc2ccc(Cl)cc21` (centres unmarked) [Example 212, 6-Chloro-4-ethyl-2-trifluoromethyl-2H-1-benzopyran-3-carboxylic acid] showed a melting point of 170.9 to 172.1 °C.

Source of the values: patent US7138411B2, “Substituted benzopyran derivatives for the treatment of inflammation” (G.D. Searle & Co., priority 1997, dated 2006).
